# Tests used:
# female NMRI mice = assay: Anorectic action: cumulative evaporated milk consumption after 24 h feed removal; format: in vivo; conditions: compared with control animals
# Method: The activity of the compounds was assayed as follows:
# The anorectic action was tested on female NMRI mice. After removal of feed for 24 hours, the preparation to be tested was administered intraperitoneally (ip) or by gavage (po). The animals were housed singly and, with free access to drinking water, they were offered evaporated milk 30 minutes after administration of the preparation. The consumption of evaporated milk was determined and the general behavior of the animals was monitored every half an hour for 7 hours. The measured milk consumption was compared to that of vehicle-treated control animals.
melting point [°C],Structure (SMILES),Reduction in cumulative milk consumption as % of the control (female NMRI mice; dose 20 mg/kg) [%],Reduction in cumulative milk consumption as % of the control (female NMRI mice; dose 50 mg/kg) [%]
145,"CCS(=O)(=O)C1Cc2cc(Cl)ccc2C1O (stereo not shown) [Example 3, 5-Chloro-2-ethanesulfonylindan-1-ol]",–,–
163,"CS(=O)(=O)C1Cc2cc(Cl)ccc2C1O (stereo not shown) [Example 1, 5-Chloro-2-methylsulfonylindan-1-ol]",50,–
–,"CSC1Cc2cc(Cl)ccc2C1O (stereo not shown) [Example 4, 5-Chloro-2-methylsulfanylindan-1-ol]",–,85
